In ChEMBL document CHEMBL3638918, “Pyrazole derivatives” (2015):

Key:
[1] = molecular target: Trace amine-associated receptor 1 (Rattus norvegicus, UniProt Q923Y9); test: Nonspecific binding was defined as the amount of 3-[H]-(S)-4-[(ethyl-phenyl-amino)-methyl]-4,5-dihydro-oxazol-2-ylamine bound in the presence of 10 uM unlabeled ligand. All compounds were tested at a broad range of concentrations (10 pM to 10 uM) in duplicates. The test compounds (20 ul/well) were transferred into a 96 deep well plate (TreffLab), and 180 ul of HEPES-NaOH (20 mM, pH 7.4) containing MgCl2 (10 mM) and CaCl2 (2 mM) (binding buffer), 300 ul of the radioligand 3[H](S)-4-[(ethyl-phenyl-amino)-methyl]-4,5-dihydro-oxazol-2-ylamine at a concentration of 3.3Kd in nM.; format: cell membranes
Sequence of Trace amine-associated receptor 1 (Rattus norvegicus, UniProt Q923Y9) (Q923Y9 whole entry): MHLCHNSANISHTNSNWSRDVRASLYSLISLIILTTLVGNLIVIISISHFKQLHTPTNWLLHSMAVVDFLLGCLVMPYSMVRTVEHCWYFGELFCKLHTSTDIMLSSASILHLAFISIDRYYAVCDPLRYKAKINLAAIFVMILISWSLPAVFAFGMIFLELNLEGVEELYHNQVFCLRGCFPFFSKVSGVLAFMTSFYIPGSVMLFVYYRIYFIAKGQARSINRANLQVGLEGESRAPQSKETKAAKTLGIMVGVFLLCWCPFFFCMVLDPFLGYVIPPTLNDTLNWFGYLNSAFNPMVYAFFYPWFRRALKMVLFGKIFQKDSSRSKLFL

[2] = molecular target: Trace amine-associated receptor 1 (Mus musculus, UniProt Q923Y8); test: Radioligand Binding: The TAAR1 radioligand 3[H](S)-4-[(ethyl-phenyl-amino)-methyl]-4,5-dihydro-oxazol-2-ylamine (described in WO 2008/098857) was used at a concentration equal to the calculated Kd value, that was usually around 0.7 nM, resulting in the binding of approximately 0.5% of the radioligand and a specific binding representing approximately 70% of the total binding. Nonspecific binding was defined as the amount of 3[H](S)-4-[(ethyl-phenyl-amino)-methyl]-4,5-dihydro-oxazol-2-ylamine bound in the presence of 10 uM unlabeled ligand. All compounds were tested at a broad range of concentrations ([…]) in duplicates.
Sequence of Trace amine-associated receptor 1 (Mus musculus, UniProt Q923Y8) (Q923Y8 whole entry): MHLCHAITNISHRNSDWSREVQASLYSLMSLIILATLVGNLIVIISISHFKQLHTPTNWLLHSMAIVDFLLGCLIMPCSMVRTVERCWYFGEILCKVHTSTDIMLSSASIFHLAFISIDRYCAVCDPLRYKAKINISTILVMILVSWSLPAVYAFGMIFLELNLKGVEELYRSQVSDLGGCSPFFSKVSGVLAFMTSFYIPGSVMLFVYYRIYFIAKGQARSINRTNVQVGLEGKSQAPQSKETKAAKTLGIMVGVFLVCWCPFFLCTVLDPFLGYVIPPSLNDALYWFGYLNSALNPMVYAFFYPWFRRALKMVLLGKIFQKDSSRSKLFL

- Ki [1]: 8.8 nM
- Ki [2]: 6.4 nM
SMILES: COc1cccc(-c2cc(C(=O)Nc3ccc([C@H]4CNCCO4)cc3)n(C)n2)c1
